≈ marks a conversion by molar mass, not a printed value.

The text below walks through data of US9968627B2 (Celgene Corporation, priority 2013, dated 2018).

Data set [1] concerns subjects with higher-risk MDS. The following applies: Phase III study, administered subcutaneously; cited from earlier work.
Data set [2] can be described thus: Solubility of 5-azacytidine in various solvents at ambient temperature (visual, solvent aliquot addition). The format is physicochemical. Particulars: thermodynamic from solid. The protocol:
Solubility was estimated by treating a weighed sample of 5-azacytidine with measured aliquots of the test solvent at ambient temperature, with shaking and/or sonication between aliquots. Dissolution was determined by visual inspection. Solubility numbers were calculated by dividing the […]. The actual solubilities may be greater than the numbers calculated because of the use of solvent aliquots that were too large or because of slow dissolution rates. […] The solubility number is expressed as “greater than” if dissolution occurred on addition of the first solvent aliquot.

For `Nc1ncn([C@@H]2O[C@H](CO)[C@@H](O)[C@H]2O)c(=O)n1` [5-azacytidine, 4-amino-1-β-D-ribofuranosyl-1,3,5-triazin-2(1H)-one], the “Survival and time to AML transformation or death” value in data set [1] was “significantly prolonged survival and time to AML transformation or death”. In addition, the solubility (in general, the dissolved amount per volume that the medium holds) is 2800 µg/mL (≈ 11.5 mM) in data set [2] (1:1 methanol/water, aqueous with cosolvent or surfactant or cyclodextrin, 1:1 methanol/water); 3100 µg/mL (≈ 12.7 mM) in data set [2] (1:2 methanol/water, aqueous with cosolvent or surfactant or cyclodextrin, 1:2 methanol/water); 4600 µg/mL (≈ 18.8 mM) in data set [2] (1:2 methanol/water, aqueous with cosolvent or surfactant or cyclodextrin, 1:2 methanol/water (second line printed with this solvent)); 1700 µg/mL (≈ 6.96 mM) in data set [2] (DMF, organic solvent or mixture); 2200 µg/mL (≈ 9.01 mM) in data set [2] (DMSO, organic solvent or mixture).
